Read-outs that look alike come from different tables or passages of the source.
Tests used:
[1] = system: MCP-1 (monocyte chemoattractant protein)
Protocol: CD-1 male mouse, 6 to 7 weeks and 32-38 grams from Charles River Labs were used in the study. […] Briefly, mice were allowed optimal inhalation and passive gravitational flow of LPS directly to the lungs. 50 μg (in 50 μl) LPS was instilled into the nares in five boluses of 10 μl each. […] For processing, a mammalian protease inhibitor cocktail (diluted 1:100 in PBS) was added to each lung sample. Lungs were homogenized by Beadbeater with 2 mm zirconia beads for 1.5 minutes. Homogenates were spun at 10K for 10 minutes at 4° C., and supernatants collected for analysis. Quantikine kit (R&D Systems) assays for JE/MCP-1 were performed as per kit protocols. For the lungs samples, MCP-1 content was expressed as pg/mg of protein. Protein measurements were performed by Pierce™ BCA Protein Assay Kit according to the protocol provided by a manufacturer.

[2] = system: oxazolone-induced contact hypersensitivity; settings: 24 hrs after oxazolone challenge; pHLIP-Dexa 4.6 mg/kg i.p. vs Dexa 0.46 mg/kg i.p. and 20 mg/kg orally
Protocol: CD-1 male mouse, 8 to 10 weeks from Charles River Labs were used in the study. Contact hypersensitivity was induced by sensitization and challenge with oxazalone as follows: on day 1, mice are sensitized to oxazalone by application (50 μL; 3% in 100% ethanol) to the abdominal area (previously shaved) and to each footpad (5 μL). On day 6, mice were exposed to oxazalone (20 μL; 1% in 100% ethanol) by application to each side of right ear. Twenty-four hrs after challenge (day 7), dermatitis severity was measured using a visual scale: 0—no evidence of erythema or swelling; 1—mild swelling; 2—mild erythema and moderate selling; 3—erythema and severe swelling. Ear thickness was measured using a micrometer once, prior to sensitization on day 1 (baseline) and once, after dosing on day 7 of the study.

RPMI 8226 myeloma cells = settings: 5 μM pHLIP-Dexa, 2 hrs without FBS, viability after 22 hours
Protocol: Myeloma cancer cells were loaded in the wells (30,000 cells/well) and incubated overnight. […] Cell viability was assessed after 22 hours using the colorimetric CellTiter 96 AQueous One Solution Cell Proliferation Assay by absorption measurement at 490 nm.

pHLIP-(PEG4)-dexamethasone [pHLIP-Dexa]
reduction of level of MCP-1 protein ([1]; dose 4.6 mg/kg in PBS/5% DMSO, 30 minutes after LPS): very effective in reducing level of MCP-1 protein
reduction of level of MCP-1 protein ([1]; high dose 11.4 mg/kg in PBS/5% DMSO): less effective
decrease of thickness of animal ear [2]: as effective as high and low doses of Dexa
reduction of inflammation (dermatitis severity, scale 0 to 3) [2]: as effective as high and low doses of Dexa
myeloma cancer cell viability, pHLIP-Dexa alone (RPMI 8226 myeloma cells): induced myeloma cancer cells death

— US20200323882A1, “PHLIP®-MEDIATED TARGETING OF CORTICOSTEROIDS TO DISEASED TISSUE” (priority 2019, published 2020)
